How the values were obtained:
[1] = test system: BV2 (mouse microglia) cell line; assay: pHrodo-myelin phagocytosis/cell viability high content imaging assay: viability (cell count, nuclear area, nuclear intensity); details: BV2 cells, 10 uM compound, 48 hours treatment
Outline: (§1)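 Immortalized microglia are treated with compound (10 μM, single concentration) for 48 h, the final 20 h alongside pHrodo-myelin. Data are the mean of duplicates, reported as % of untreated control.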

[2] = test system: HMC3 (human microglia) cell line; assay: as above; details: HMC3 cells, 10 uM compound, 48 hours treatment
Outline: as §1

[3] = test system: BV2 (mouse microglia) cell line; assay: pHrodo-myelin phagocytosis/cell viability high content imaging assay: phagocytosis signal; type: cell-based; details: BV2 cells, 10 uM compound, 48 hours treatment, pHrodo-myelin final 20 hours
Outline: (§2)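 Phagocytosis and cell viability were measured together by high content imaging about 22 hours after pHrodo-myelin addition. Three measurements were extracted from the images. Intensity increase and decrease were taken as early and later apoptosis, respectively.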

[4] = test system: HMC3 (human microglia) cell line; assay: as above; type: cell-based; details: HMC3 cells, 10 uM compound, 48 hours treatment, pHrodo-myelin final 20 hours
Outline: as §2

SMILES	1. Cell count (% control) [1] [% control]	2. Nuclear Area (% Control) [1] [% Control]	3. Nuclear DNA Intensity (% control) [1] [% control]	1. Cell count (% control) [2] [% control]	2. Nuclear Area (% Control) [2] [% Control]	3. Nuclear DNA Intensity (% control) [2] [% control]	4. Phagocytosis (% control) [3] [% control]	4. Phagocytosis (% control) [4] [% control]
O=S(=O)(c1ccccc1)N(CC(F)(F)F)c1ccc(C(O)(C(F)(F)F)C(F)(F)F)cc1 [UNC10302875A]	109.2	107.3	110.7	121.7	100.6	97.9	216.4	59.3
O=C(N/N=C/c1ccc(Cl)cc1)c1ccccc1 [UNC10302877A]	100.1	103.0	107.1	103.0	94.5	106.0	104.1	87.3
CC(C)c1ccc(/C=N/NC(=O)c2ccc(O)cc2)cc1 [UNC10302878A]	104.0	103.1	108.0	137.1	101.0	96.0	129.4	80.2
c1ccc(CNc2nc(NCc3ccccc3)c3ccccc3n2)cc1 [UNC10302879A]	27.3	94.3	65.0	28.2	43.8	179.2	0.00106	0.0516
Cc1cc(NC(=O)Nc2ccccc2)n(-c2ccccc2)n1 [UNC10302880A]	120.0	104.5	102.6	145.4	97.9	96.8	135.3	71.0
O=C(O)c1cc2nc(-c3ccc(Cl)cc3)cc(C(F)(F)F)n2n1 [UNC10302881A]	116.3	105.9	97.1	123.0	99.8	93.1	163.1	94.6
Cc1ccccc1NC(=O)CN1C(=O)N/C(=C/c2ccccc2OCc2ccc(C(=O)O)cc2)C1=O [UNC10302882A]	94.9	109.5	96.5	155.5	101.8	92.5	153.2	89.7
O=C(/C=C/c1ccco1)Nc1ncc(Cc2ccccc2)s1 [UNC10302883A]	36.1	95.3	118.7	163.4	60.3	203.4	12.7	17.7
Br.CCCc1cc(-c2nc(-c3ccc(C)cc3)cs2)ccn1 [UNC10302889A]	52.9	97.6	117.7	81.4	79.1	141.7	198.0	101.1
Nc1ncnc2c1nc(Sc1ccc(Cl)cc1)n2[C@@H]1O[C@@H]2COP(=O)([O-])O[C@H]2[C@H]1O.[Na+] [UNC10302890A]	107.7	106.8	98.4	115.9	99.4	99.1	104.7	84.6
CN(C)CCCn1c(N)c(-c2nc3ccccc3[nH]2)c2nc3ccccc3nc21 [UNC10302891A]	121.8	105.7	98.0	137.9	99.6	97.0	109.5	44.4
Cc1cc2c(cc1C(=O)c1ccc(C(=O)O)cc1)C(C)(C)CCC2(C)C [UNC10302892A]	95.3	107.4	95.0	88.9	102.9	97.5	90.2	75.7
Fc1ccc(C(CCCNCC2CCc3[nH]c4ccc(F)cc4c3C2)c2ccc(F)cc2)cc1 (stereo not drawn) [UNC10302893A]	10.4	127.3	33.1	14.1	53.2	215.4	0.0	0.0
CN(C)C/C=C/C(=O)Nc1cc2c(Nc3ccc(F)c(Cl)c3)ncnc2cc1O[C@H]1CCOC1 [UNC10302894A]		107.0	89.4	95.3	52.1	246.1	41.4	43.8
CCC(=C(c1ccc(O)cc1)c1ccc(OCCN(C)C)cc1)c1ccccc1 [UNC10302895A]	114.3	103.3	103.4	134.2	100.6	93.3	182.9	89.5
CC(=O)NCC(=O)N1[C@@H]2CC[C@H]1c1ccc(Nc3ncc(C(F)(F)F)c(NC4CCC4)n3)cc12 [UNC10302896A]	18.3	110.7	18.8	69.3	158.3	82.5	0.15	16.0
OC(c1cc(C23CC4CC(CC(C4)C2)C3)nc2c(Cl)cc(Cl)cc12)C1CCCCN1 (stereo not drawn) [UNC10302897A]	63.8	105.3	99.1	110.1	94.7	100.9	122.3	67.0
CN(C)CC[C@H](CSc1ccccc1)Nc1ccc(S(=O)(=O)NC(=O)c2ccc(N3CCN(Cc4ccccc4-c4ccc(Cl)cc4)CC3)cc2)cc1[N+](=O)[O-] [UNC10302898A]	128.7	97.8	106.0	148.0	98.3	97.1	104.5	82.2
CC(Nc1nc(N2CCCC2)nc2ccccc12)c1ccccc1 (stereo not drawn) [UNC10302900A]	9.8	106.6	119.7	56.4	90.6	151.6	110.9	34.5
O=c1ccc2c(OCCCCOc3ccccc3)c3ccoc3cc2o1 [UNC10302901A]	138.9	105.4	102.9	143.5	101.6	95.5	188.1	89.9
